# Results reported in patent US11091486B2, “Process for the preparation of pyrazolo[1,5-a]pyrimidines and salts thereof” (Array BioPharma Inc., priority 2016, dated 2021).
# Columns and labels:
# Assay type in all cases: physicochemical
# [1] = Hydration screen in acetone/water mixtures; conditions: 24 hr
# Experimental: Hydration screen was carried out as follows: 10 mg of prepared salts were suspended in several acetone/water mixtures of various water activities (low: aw=0.281, medium: aw=0.776 and high: aw=0.919) and agitated at ambient temperatures for 24 hr. Any recovered solids were submitted for XRPD analysis to determine any changes to form.
# [2] = Dynamic vapor sorption (DVS); conditions: post-DVS XRPD
# Experimental: Approximately, 10 mg of sample was placed into a mesh vapor sorption balance pan and loaded into a DVS-1 dynamic vapor sorption balance by Surface Measurement Systems. The sample was subjected to a ramping profile from 40-90% relative humidity (RH) at 10% increments, maintaining the sample at each step until a stable weight had been achieved (99.5% step completion). After completion of the sorption cycle, the sample was dried using the same procedure to 0% RH and then a second sorption cycle back to 40% RH. The weight change during the sorption/desorption cycles were plotted, allowing for the hygroscopic nature of the sample to be determined. XRPD analysis was then carried out on any solid retained.
# [3] = 1-week stability tests (40° C./75% RH, 80° C., ambient light), XRPD and UPLC
# Description: Compound 1 (Form I) was subjected to various different environmental conditions to assess stability.
# [4] = Salt disproportionation studies; conditions: deionized water, 24 h at ambient temperature
# Experimental: Salt disproportionation studies were carried out as follows: 20 mg of prepared salts were weighed into a vial and 0.5 mL of deionized water was added. The samples were then agitated for 24 h at ambient temperature. The pH of the samples was taken pre- and post-agitation. Any solids recovered were submitted for XRPD analysis to determine any changes to form.
# [5] = Thermodynamic solubility of prepared salts
# Experimental: Thermodynamic solubility studies were carried out as follows: 10 mg of prepared salts were suspended in pH 1, 4.5, 6.8 and un-buffered water (300 μL). The pH of the slurries was measured and adjusted accordingly using either 0.2M HCl solution or 0.2M sodium hydroxide solution. The slurries were agitated for 24 hours at ambient temperature using an incubator shaker.
# [6] = Gravimetric vapor sorption (GVS)
# Experimental: Approximately 10-20 mg of sample was placed into a mesh vapor sorption balance pan and loaded into an IGASorp Moisture Sorption Analyzer balance by Hiden Analytical. […] After completion of the sorption cycle, the sample was dried using the same procedure to 0% RH, and finally taken back to the starting point of 40% RH. The weight change during the sorption/desorption cycles were plotted, allowing for the hygroscopic nature of the sample to be determined.
# [7] = medium water activity (aw=0.776)
structure (smiles),measurement,setting,value
C[C@@H]1CCc2ncc(F)cc2[C@H]2CCCN2c2ccn3ncc(c3n2)C(=O)N1.O=C(O)CC(O)(CC(=O)O)C(=O)O [Compound 1 citrate],Hydration study: recovered solid by XRPD,[1]; high water activity (aw=0.919),poorly crystalline citrate salt
same,Hydration study: recovered solid by XRPD,[1]; low water activity (aw=0.281),poorly crystalline citrate salt
same,Hydration study: recovered solid by XRPD,[1]; [7],unknown form
same,Crystalline form by XRPD after exposure to DVS humidity conditions,[2],no changes in crystalline form
same,1-week stability test: change in purity (UPLC),[3]; 40° C./75% RH,no change to purity
same,1-week stability test: change to form (XRPD),[3]; 40° C./75% RH,no change to form
same,1-week stability test: change in purity (UPLC),[3]; 80° C.,no change to purity
same,1-week stability test: change to form (XRPD),[3]; 80° C.,no change to form
same,1-week stability test: change in purity (UPLC),[3]; ambient light,no change to purity
same,1-week stability test: change to form (XRPD),[3]; ambient light,no change to form
same,Salt disproportionation: recovered material by XRPD,[4],poorly crystalline citrate salt
same,Solid recovered from thermodynamic solubility slurry (XRPD),[5]; pH 1,poorly crystalline solids
same,Thermodynamic solubility in words,[5]; pH 1,high solubility
same,Solid recovered from thermodynamic solubility slurry (XRPD),[5]; pH 4.5,Compound 1 citrate
same,Thermodynamic solubility in words,[5]; pH 4.5,lower solubility
same,Solid recovered from thermodynamic solubility slurry (XRPD),[5]; pH 6.8,poorly crystalline free base
same,Thermodynamic solubility in words,[5]; pH 6.8,lower solubility
same,Solid recovered from thermodynamic solubility slurry (XRPD),[5]; unbuffered water,Compound 1 citrate
same,Thermodynamic solubility in words,[5]; unbuffered water,highly soluble
CS(=O)(=O)O.C[C@@H]1CCc2ncc(F)cc2[C@H]2CCCN2c2ccn3ncc(c3n2)C(=O)N1 [Compound 1 mesylate],Hydration study: recovered solid by XRPD,[1]; high water activity (aw=0.919),free base
same,Hydration study: recovered solid by XRPD,[1]; low water activity (aw=0.281),a mixture of free base and salt
same,Hydration study: recovered solid by XRPD,[1]; [7],mesylate salt
same,1-week stability test: change in purity (UPLC),[3]; 40° C./75% RH,no change to purity
same,1-week stability test: change in purity (UPLC),[3]; 80° C.,no change to purity
same,1-week stability test: change in purity (UPLC),[3]; ambient light,no change to purity
same,"Hygroscopicity, mass uptake by GVS",[6]; at 90% RH,about 32%
same,Crystalline form by XRPD after exposure to GVS humidity conditions,[6]; post-GVS XRPD,desolvate and become the mesylate form seen in the salt screen
same,Salt disproportionation: recovered material by XRPD,[4],no change to form
same,Thermodynamic solubility in words,[5]; pH 1,moderately soluble
same,Solid recovered from thermodynamic solubility slurry (XRPD),[5]; pH 4.5,mesylate salt
same,Thermodynamic solubility in words,[5]; pH 4.5,moderately soluble
same,Solid recovered from thermodynamic solubility slurry (XRPD),[5]; pH 6.8,free base
same,Thermodynamic solubility in words,[5]; pH 6.8,low solubility
same,Solid recovered from thermodynamic solubility slurry (XRPD),[5]; unbuffered water,free base
same,Thermodynamic solubility in words,[5]; unbuffered water,moderately soluble
